Measured values taken from article PMC10683025, “Discovery of a Hydroxylamine-Based Brain-Penetrant EGFR Inhibitor for Metastatic Non-Small-Cell Lung Cancer” (Journal of Medicinal Chemistry, 2023).
Like-named read-outs stand apart in the source and are kept apart here. One block for each compound: values may come before it.

Experiments:
TA1537 = test system: TA1537; set-up: species or system Salmonella;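 on Count (# of wells): Revertant-positive wells among 48 replicate wells per concentration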
Protocol: (§1) Compounds were assessed for mutagenicity at the Eurofins Panlabs in 384-well plates using four Salmonella strains: TA98, to probe for frameshift mutation (with quercetin as control), TA100 and TA1535, to probe for base pair insertions/deletions (with streptozotocin as control), and TA1537, to probe for frameshift mutations (with aminacridine as control) as previously described.[78] […] A concurrent bacterial cytotoxicity assay was run at 0.6, 1.2, 2.5, 5, 10, 25, 50, and 100 μM to rule out false negatives. Bacterial cytotoxicity was expressed as percent of control growth (OD650). Compounds with growth of less than 60% control were flagged and considered bacterial cytotoxic. […] Significances of the positive counts between the treatment and control were determined using a one-tailed Fisher’s exact test.

TA100 = test system: TA100; set-up: species or system Salmonella;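 on Count (# of wells): Revertant-positive wells among 48 replicate wells per concentration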
Protocol: as §1

TA98 = test system: TA98; set-up: species or system Salmonella;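 on Count (# of wells): Revertant-positive wells among 48 replicate wells per concentration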
Protocol: as §1

TA1535 = test system: TA1535; set-up: species or system Salmonella
P-gp and BCRP = test system: P-gp and BCRP; set-up: method as in ref 17−20; settings: ref 17−20; cited from earlier work
MDR1 = test: MDCKII-MDR1 permeability; type: in vitro ADME, canine; settings: dog, MDCK-MDR1
MDCKII-MDR1 permeability = type: in vitro ADME, canine; settings: dog, MDCK-MDR1, MDCKII-MDR1
Caco-2 permeability = type: in vitro ADME; settings: human; for efflux ratio at 2 h, 5 μM / Papp A→B at 2 h, 5 μM / Papp B→A at 2 h, 5 μM: Caco-2; for recovery at 2 h, 5 μM: Caco-2, Caco-2
Plasma stability [1] = type: in vitro ADME, Sprague-Dawley rat; settings: rat plasma
Protocol: (§2) Assessment of compounds to determine stability in incubations containing plasma of human (Pharmaron) and Sprague-Dawley rat (IPHASE) was performed by Pharmaron, Inc. using the compound […] approach. Compounds were assessed in duplicate (n = 2) and incubated in plasma at 5 μM and samples (50 μL) were taken at 0, 15, 30, 60, and 120 min time points for analysis by LC-MS/MS. Peak area ratios were determined from the extracted ion chromatogram and the percent compound remaining at each time point was calculated by the following equation: [drawing 2] where peak area ratiot min is the peak area ratio of control and test compound at t min and peak area ratio0 min is the peak area ratio of control and test compound at zero time point.

Plasma stability [2] = type: in vitro ADME, human; settings: human plasma
Protocol: as §2

[3] = Brain tissue binding by equilibrium dialysis; type: in vitro ADME, mouse; settings: CD-1, mouse
Protocol: (§3) Plasma protein binding and brain tissue binding were determined by Pharmaron, Inc. using the equilibrium dialysis method. […] Following incubation, the samples were analyzed by LC-MS/MS and the concentrations of the compounds were determined in the buffer and plasma solution chambers.

[4] = Brain tissue binding by equilibrium dialysis; type: in vitro ADME; settings: rat
Protocol: as §3

SMILES: CN(N=O)C(=O)N[C@H]1C(O)O[C@H](CO)[C@@H](O)[C@@H]1O (mixture of isomers) [Streptozotocin, reference compound]
- Count (# of wells) (TA1537; TA1537+S9, 2.5E-06 M): 7
- Positive Significance (- to +++) (TA1537; TA1537+S9, 2.5E-06 M): -
- Count (# of wells) (TA1537; TA1537-S9, 2.5E-06 M): 2
- Positive Significance (- to +++) (TA1537; TA1537-S9, 2.5E-06 M): -
- Count (# of wells) (TA100; TA100+S9, 2.5E-06 M): 39
- Count (# of wells) (TA100; TA100-S9, 2.5E-06 M): 42
- Count (# of wells) (TA98; TA98+S9, 2.5E-06 M): 2
- Positive Significance (- to +++) (TA98; TA98+S9, 2.5E-06 M): -
- Count (# of wells) (TA98; TA98-S9, 2.5E-06 M): 1
- Positive Significance (- to +++) (TA98; TA98-S9, 2.5E-06 M): -
- Count (# of wells) (TA1535; TA1535+S9, 2.5E-06 M): 48
- Count (# of wells) (TA1535; TA1535-S9, 2.5E-06 M): 2
- Positive Significance (- to +++) (TA1535; TA1535-S9, 2.5E-06 M): -

SMILES: Nc1ccc2cc3ccccc3cc2c1 [2-Aminoanthracene, reference compound]
- Count (# of wells) (TA1537; TA1537+S9, 1.0E-05 M): 14
- Positive Significance (- to +++) (TA1537; TA1537+S9, 1.0E-05 M): ++ (strong positive, if P < 0.01 (denoted as “++”))
- Count (# of wells) (TA1537; TA1537-S9, 5.0E-06 M): 1
- Positive Significance (- to +++) (TA1537; TA1537-S9, 5.0E-06 M): -
- Count (# of wells) (TA100; TA100+S9, 1.0E-06 M): 21
- Count (# of wells) (TA100; TA100-S9, 5.0E-06 M): 4
- Positive Significance (- to +++) (TA100; TA100-S9, 5.0E-06 M): -
- Count (# of wells) (TA98; TA98+S9, 2.0E-06 M): 47
- Count (# of wells) (TA98; TA98-S9, 5.0E-06 M): 1
- Positive Significance (- to +++) (TA98; TA98-S9, 5.0E-06 M): -
- Count (# of wells) (TA1535; TA1535+S9, 5.0E-06 M): 15

SMILES: Nc1c2ccccc2nc2ccccc12 [9-Aminoacridine, reference compound]
- Count (# of wells) (TA1537; TA1537+S9, 1.0E-05 M): 17
- Count (# of wells) (TA1537; TA1537-S9, 1.0E-05 M): 11
- Positive Significance (- to +++) (TA1537; TA1537-S9, 1.0E-05 M): ++ (strong positive, if P < 0.01 (denoted as “++”))
- Count (# of wells) (TA100; TA100+S9, 1.0E-05 M): 3
- Positive Significance (- to +++) (TA100; TA100+S9, 1.0E-05 M): -
- Count (# of wells) (TA100; TA100-S9, 1.0E-05 M): 2
- Positive Significance (- to +++) (TA100; TA100-S9, 1.0E-05 M): -
- Count (# of wells) (TA98; TA98+S9, 1.0E-05 M): 1
- Positive Significance (- to +++) (TA98; TA98+S9, 1.0E-05 M): -
- Count (# of wells) (TA98; TA98-S9, 1.0E-05 M): 0
- Positive Significance (- to +++) (TA98; TA98-S9, 1.0E-05 M): -
- Count (# of wells) (TA1535; TA1535+S9, 1.0E-05 M): 0
- Positive Significance (- to +++) (TA1535; TA1535+S9, 1.0E-05 M): -
- Count (# of wells) (TA1535; TA1535-S9, 1.0E-05 M): 1
- Positive Significance (- to +++) (TA1535; TA1535-S9, 1.0E-05 M): -

SMILES: CN(C)C/C=C/C(=O)Nc1cc2c(Nc3ccc(F)c(Cl)c3)ncnc2cc1O[C@H]1CCOC1 [Afatinib]
- efflux status against common efflux transporters (P-gp and BCRP): P-gp and BCRP Substrate

SMILES: COc1cc2ncnc(Nc3ccc(F)c(Cl)c3)c2cc1NC(=O)/C=C/CN1CCCCC1 [Dacomitinib]
- efflux status against common efflux transporters (P-gp and BCRP): P-gp and BCRP Substrate

- efflux ratio at 2 h, 1 μM (MDR1): 40.6
- Papp A→B at 2 h, 1 μM (MDR1): 0.25 ×10⁻⁶ cm/s
- Papp B→A at 2 h, 1 μM (MDR1): 10.2 ×10⁻⁶ cm/s
- recovery at 2 h, 1 μM (MDCKII-MDR1 permeability; read-out: Recovery% (AP-BL)): 98.8%
- recovery at 2 h, 1 μM (MDCKII-MDR1 permeability; read-out: Recovery% (BL-AP)): 100%
- efflux ratio at 2 h, 5 μM (Caco-2 permeability): 50.1
- recovery at 2 h, 5 μM (Caco-2 permeability; read-out: Recovery% (AP-BL)): 108%
- recovery at 2 h, 5 μM (Caco-2 permeability; read-out: Recovery% (BL-AP)): 96.2%
- Papp A→B at 2 h, 5 μM (Caco-2 permeability): 0.27 ×10⁻⁶ cm/s
- Papp B→A at 2 h, 5 μM (Caco-2 permeability): 13.4 ×10⁻⁶ cm/s
SMILES: C[C@H]1O[C@@H](O[C@H]2[C@@H](O)C[C@H](O[C@H]3[C@@H](O)C[C@H](O[C@H]4CC[C@@]5(C)[C@H](CC[C@@H]6[C@@H]5C[C@@H](O)[C@]5(C)[C@@H](C7=CC(=O)OC7)CC[C@]65O)C4)O[C@@H]3C)O[C@@H]2C)C[C@H](O)[C@@H]1O [Digoxin, reference compound]

SMILES: C#Cc1cccc(Nc2ncnc3cc(OCCOC)c(OCCOC)cc23)c1 [Erlotinib]
- efflux status against common efflux transporters (P-gp and BCRP): P-gp and BCRP Substrate

- efflux ratio at 2 h, 1 μM (MDR1): 0.81
- Papp A→B at 2 h, 1 μM (MDR1): 25.9 ×10⁻⁶ cm/s
- Papp B→A at 2 h, 1 μM (MDR1): 20.9 ×10⁻⁶ cm/s
- recovery at 2 h, 1 μM (MDCKII-MDR1 permeability; read-out: Recovery% (AP-BL)): 105%
- recovery at 2 h, 1 μM (MDCKII-MDR1 permeability; read-out: Recovery% (BL-AP)): 98.4%
- efflux ratio at 2 h, 5 μM (Caco-2 permeability): 0.89
- recovery at 2 h, 5 μM (Caco-2 permeability; read-out: Recovery% (AP-BL)): 97.4%
- recovery at 2 h, 5 μM (Caco-2 permeability; read-out: Recovery% (BL-AP)): 98.4%
- Papp A→B at 2 h, 5 μM (Caco-2 permeability): 24.9 ×10⁻⁶ cm/s
- Papp B→A at 2 h, 5 μM (Caco-2 permeability): 22.2 ×10⁻⁶ cm/s
SMILES: COCCc1ccc(OCC(O)CNC(C)C)cc1 (centres unmarked) [Metoprolol, reference compound]

SMILES: CC[C@H](C)C(=O)O[C@H]1C[C@@H](C)C=C2C=C[C@H](C)[C@H](CC[C@@H]3C[C@@H](O)CC(=O)O3)[C@H]21 [Mevinolin, reference compound]
- half-life at 5 μM (Plasma stability [1]; Sprague-Dawley, ∞ = no degradation): 2.49 min
- Remaining Percentages (Plasma stability [1]; 15 min): 1.54%
- Remaining Percentages (Plasma stability [1]; 30 min): 0.42%
- Remaining Percentages (Plasma stability [1]; 60 min): 0.30%
- Remaining Percentages (Plasma stability [1]; 120 min): 0.27%

SMILES: C=CC(=O)Nc1cc(Nc2nccc(-c3cn(C)c4ccccc34)n2)c(OC)cc1N(C)CCN(C)C [Osimertinib]
- efflux status against common efflux transporters (P-gp and BCRP): Moderate P-gp and BCRP Substrate

- Remaining Percentages (Plasma stability [2]; 15 min): 69.10%
- Remaining Percentages (Plasma stability [2]; 30 min): 48.79%
- Remaining Percentages (Plasma stability [2]; 60 min): 22.07%
- Remaining Percentages (Plasma stability [2]; 120 min): 4.85%
- half-life at 5 μM (Plasma stability [2]; ∞ = no degradation): 27.6 min
SMILES: CC(C)[N+](C)(CCOC(=O)C1c2ccccc2Oc2ccccc21)C(C)C [Propantheline, reference compound]

SMILES: O=c1c(O)c(-c2ccc(O)c(O)c2)oc2cc(O)cc(O)c12 [Quercetin, reference compound]
- Count (# of wells) (TA1537; TA1537+S9, 3.0E-05 M): 6
- Positive Significance (- to +++) (TA1537; TA1537+S9, 3.0E-05 M): -
- Count (# of wells) (TA1537; TA1537-S9, 1.0E-05 M): 1
- Positive Significance (- to +++) (TA1537; TA1537-S9, 1.0E-05 M): -
- Count (# of wells) (TA100; TA100+S9, 1.0E-05 M): 5
- Positive Significance (- to +++) (TA100; TA100+S9, 1.0E-05 M): -
- Count (# of wells) (TA100; TA100-S9, 1.0E-05 M): 1
- Count (# of wells) (TA98; TA98+S9, 1.0E-05 M): 30
- Count (# of wells) (TA98; TA98-S9, 1.0E-05 M): 12
- Count (# of wells) (TA1535; TA1535+S9, 1.0E-05 M): 4
- Positive Significance (- to +++) (TA1535; TA1535+S9, 1.0E-05 M): -

SMILES: CCCc1nc2c(C)cc(-c3nc4ccccc4n3C)cc2n1Cc1ccc(-c2ccccc2C(=O)O)cc1 [Telmisartan, reference compound]
- fraction unbound at 6 h, 5 μM ([3]; brain homogenate, read-out: fu,brain% / %Unboundbrain): 0.0143
- recovery at 6 h, 5 μM ([3]; mouse brain homogenate): 109%
- remaining at 6 h, 5 μM ([3]; mouse brain homogenate): 108%
- fraction unbound at 6 h, 5 μM ([3]; mouse brain homogenate, read-out: %Unboundbrain (converted)): 0.0143
- recovery at 6 h, 5 μM ([4]; Sprague-Dawley (SD), rat brain homogenate): 107%
- fraction unbound at 6 h, 5 μM ([4]; Sprague-Dawley, brain homogenate, read-out: fu,brain% / %Unboundbrain): 0.0146
- remaining at 6 h, 5 μM ([4]; Sprague-Dawley, rat brain homogenate): 100%
- fraction unbound at 6 h, 5 μM ([4]; Sprague-Dawley, rat brain homogenate, read-out: %Boundbrain (converted)): 0.0146
